Measured values: patent US11504382B2, “Tricyclic inhibitors of Hepatitis B virus” (Antios Therapeutics, Inc., priority 2018, dated 2022)
Like-named read-outs stand apart in the source and are kept apart here.

System: HBV
Test: HBV inhibition assay in HepAD38 cells (extracellular HBV DNA by direct qPCR)
Format: cell-based, Hepatitis B virus
Conditions: 96 hours; for EC50: 8-point dose-response curve, read-out: HBV inh EC50; for inhibition at 1 µM / inhibition at 0.1 µM / Anti HBV Activity (conc μM) / inhibition at 0.05 µM: relative to non-treated reference; for inhibition at 1 µM / inhibition at 0.1 µM / inhibition at 0.05 µM: read-out: Anti HBV Activity (conc μM)

Compound: Cc1cc(NC(=O)c2c3c(cn2C)S(=O)(=O)N[C@H]2CN(C(=O)C4(C)CCCO4)C[C@H]2CO3)ccc1F (stereo partly drawn) [Example E111, (3aR,10aR)—N-(4-fluoro-3-methylphenyl)-7-methyl-2-(2-methyltetrahydrofuran-2-carbonyl)-2,3,3a,4,10,10a-hexahydro-1H,7H-dipyrrolo[3,4-b:3′,4′-f][1,4,5]oxathiazocine-8-carboxamide 5,5-dioxide]
- EC50 (Hepatitis B virus): < 1000 nM

Compound: Cn1cc2c(c1C(=O)Nc1ccc(F)c(F)c1)OC1COCC1NS2(=O)=O (racemic) [Example E4, trans-N-(3,4-difluorophenyl)-7-methyl-1,3a,4,9a-tetrahydro-3H,7H-furo[3,4-f]pyrrolo[3,4-b][1,4,5]oxathiazepine-8-carboxamide 5,5-dioxide]
- inhibition at 1 µM (Hepatitis B virus): > 50%
- EC50 (Hepatitis B virus): < 1000 nM

Compound: Cn1cc2c(c1C(=O)Nc1ccc(F)c(F)c1)NCC1CCCCN1S2(=O)=O (centres unmarked) [Example E2, N-(3,4-difluorophenyl)-2-methyl-2,6,7,8,9,9a,10,11-octahydropyrido[1,2-b]pyrrolo[3,4-f][1,2,5]thiadiazepine-1-carboxamide 4,4-dioxide]
- inhibition at 1 µM (Hepatitis B virus): < 50%

Compound: CC(=O)OCC(=O)N1CC2COc3c(cn(C)c3C(=O)Nc3cc(F)c(F)c(F)c3)S(=O)(=O)NC2C1 (stereo not drawn) [Example E70, cis-2-(7-methyl-5,5-dioxido-8-((3,4,5-trifluorophenyl)carbamoyl)-3a,4,10,10a-tetrahydro-1H,7H-dipyrrolo[3,4-b:3′,4′-f][1,4,5]oxathiazocin-2(3H)-yl)-2-oxoethyl acetate]
- inhibition at 0.1 µM (Hepatitis B virus, 0.1 μM): < 50%

Compound: Ethyl 8-((3-chloro-4-fluorophenyl)carbamoyl)-7-methyl-3a,4,10,10a-tetrahydro-1H,7H-dipyrrolo[3,4-b:3′,4′-f][1,4,5]oxathiazocine-2(3H)-carboxylate 5,5-dioxide (3aS,10aS) [Example E42]
- Anti HBV Activity (conc μM) (0.1 μM): B (0.1) (HBV inhibition less than 50% at the concentration indicated in the table)

Compound: Cn1cc2c(c1C(=O)Nc1cc(F)c(F)c(F)c1)OC[C@@H]1CNC[C@@H]1NS2(=O)=O [Example E36, 7-methyl-N-(3,4,5-trifluorophenyl)-2,3,3a,4,10,10a-hexahydro-1H,7H-dipyrrolo[3,4-b:3′,4′-f][1,4,5]oxathiazocine-8-carboxamide 5,5-dioxide (3aR,10aR)]
- inhibition at 0.1 µM (Hepatitis B virus, 0.1 μM): < 50%

Compound: Cn1cc2c(c1C(=O)Nc1cc(F)c(F)c(F)c1)OC[C@H]1CN(C(=O)COP(=O)(O)O)C[C@H]1NS2(=O)=O (relative stereo) [Example E72, cis-2-(7-methyl-5,5-dioxido-8-((3,4,5-trifluorophenyl)carbamoyl)-3a,4,10,10a-tetrahydro-1H,7H-dipyrrolo[3,4-b:3′,4′-f][1,4,5]oxathiazocin-2(3H)-yl)-2-oxoethyl Dihydrogen Phosphate]
- inhibition at 0.1 µM (Hepatitis B virus, 0.1 μM): < 50%

Compound: CCOC(=O)N1CC2COc3c(cn(C)c3C(=O)Nc3ccc(F)c(F)c3)S(=O)(=O)NC2C1 (racemic) [Example E13, Cis-Ethyl 8-((3,4-difluorophenyl)carbamoyl)-7-methyl-3a,4,10,10a-tetrahydro-1H,7H-dipyrrolo[3,4-b:3′,4′-f][1,4,5]oxathiazocine-2(3H)-carboxylate 5,5-dioxide]
- inhibition at 0.1 µM (Hepatitis B virus, 0.1 μM): > 50%
- EC50 (Hepatitis B virus): < 1000 nM

Compound: Cc1nnc(N2CC3COc4c(cn(C)c4C(=O)Nc4cc(F)c(F)c(F)c4)S(=O)(=O)NC3C2)o1 (stereo not drawn) [Example E78, cis-7-methyl-2-(5-methyl-1,3,4-oxadiazol-2-yl)-N-(3,4,5-trifluorophenyl)-2,3,3a,4,10,10a-hexahydro-1H,7H-dipyrrolo[3,4-b:3′,4′-f][1,4,5]oxathiazocine-8-carboxamide 5,5-dioxide]
- inhibition at 0.05 µM (Hepatitis B virus, 0.05 μM): > 50%
- EC50 (Hepatitis B virus): < 1000 nM

Compound: Cc1nnc(C(=O)N2CCC3NS(=O)(=O)c4cn(C)c(C(=O)Nc5ccc(F)c(C)c5)c4OCC3C2)o1 (racemic) [Example E125, Cis-N-(4-fluoro-3-methylphenyl)-2-methyl-8-(5-methyl-1,3,4-oxadiazole-2-carbonyl)-5,5a,6,7,8,9,9a,10-octahydro-2H-pyrido[4,3-f]pyrrolo[3,4-b][1,4,5]oxathiazocine-1-carboxamide 4,4-dioxide]
- EC50 (Hepatitis B virus): < 1000 nM

Compound: CCOC(=O)N1C[C@H]2C[S+]([O-])c3c(cn(C)c3C(=O)Nc3ccc(F)c(C)c3)S(=O)(=O)N[C@H]2C1 (stereo partly drawn) [Example E122, Ethyl (3aR,10aR)-8-((4-fluoro-3-methylphenyl)carbamoyl)-7-methyl-3a,4,10,10a-tetrahydro-1H,7H-dipyrrolo[3,4-c:3′,4′-g][1,6,2]dithiazocine-2(3H)-carboxylate 5,5,9-trioxide]
- EC50 (Hepatitis B virus): < 1000 nM

Compound: CCOC(=O)N1CC2NS(=O)(=O)c3cn(C)c(C(=O)Nc4ccc(F)c(C)c4)c3OCC2(C)C1 (single isomer, unassigned) [Example E94, Ethyl 8-((4-fluoro-3-methylphenyl)carbamoyl)-7,10a-dimethyl-3a,4,10,10a-tetrahydro-1H,7H-dipyrrolo[3,4-b:3′,4′-f][1,4,5]oxathiazocine-2(3H)-carboxylate 5,5-dioxide(Chiral 3aS,10aS or 3aR,10aR - Stereochemistryunknown)]
- EC50: < 1000 nM

Compound: Cc1cc(NC(=O)c2c3c(cn2C)S(=O)(=O)NC2CCN(C(=O)c4ncoc4C)CC2CO3)ccc1F (racemic) [Example E134, Trans-N-(4-fluoro-3-methylphenyl)-2-methyl-8-(5-methyloxazole-4-carbonyl)-5,5a,6,7,8,9,9a,10-octahydro-2H-pyrido[4,3-f]pyrrolo[3,4-b][1,4,5]oxathiazocine-1-carboxamide 4,4-dioxide]
- EC50 (Hepatitis B virus): < 1000 nM

Compound: Cc1nnc(C(=O)N2C[C@H]3COc4c(cn(C)c4C(=O)Nc4ccc(F)c(C)c4)S(=O)(=O)N[C@H]3C2)s1 [Example E107, (3aR,10aR)—N-(4-fluoro-3-methylphenyl)-7-methyl-2-(5-methyl-1,3,4-thiadiazole-2-carbonyl)-2,3,3a,4,10,10a-hexahydro-1H,7H-dipyrrolo[3,4-b:3′,4′-f][1,4,5]oxathiazocine-8-carboxamide 5,5-dioxide]
- EC50 (Hepatitis B virus): < 1000 nM

Compound: Cn1cc2c(c1C(=O)Nc1cc(F)c(F)c(F)c1)OCC1CN(c3ccccn3)CC1NS2(=O)=O (stereo not drawn) [Example E81, cis-7-methyl-2-(pyridin-2-yl)-N-(3,4,5-trifluorophenyl)-2,3,3a,4,10,10a-hexahydro-1H,7H-dipyrrolo[3,4-b:3′,4′-f][1,4,5]oxathiazocine-8-carboxamide 5,5-dioxide]
- inhibition at 0.1 µM (Hepatitis B virus, 0.1 μM): > 50%

Compound: Cc1nnc(C(=O)N2CCC3NS(=O)(=O)c4cn(C)c(C(=O)Nc5ccc(F)c(C)c5)c4OCC3C2)o1 (racemic) [Example E130, Trans-N-(4-fluoro-3-methylphenyl)-2-methyl-8-(5-methyl-1,3,4-oxadiazole-2-carbonyl)-5,5a,6,7,8,9,9a,10-octahydro-2H-pyrido[4,3-f]pyrrolo[3,4-b][1,4,5]oxathiazocine-1-carboxamide 4,4-dioxide]
- EC50: < 1000 nM

Compound: Ethyl 8-((3-chloro-4-fluorophenyl)carbamoyl)-7-methyl-3a,4,10,10a-tetrahydro-1H,7H-dipyrrolo[3,4-b:3′,4′-f][1,4,5]oxathiazocine-2(3H)-carboxylate 5,5-dioxide (3aR,10aR) [Example E41]
- Anti HBV Activity (conc μM) (0.05 μM): A (0.05) (HBV inhibition greater than 50% at the concentration indicated in the table)
- EC50: < 1000 nM

Compound: Cc1nnc(N2C[C@H]3COc4c(cn(C)c4C(=O)Nc4ccc(F)c(Cl)c4)S(=O)(=O)N[C@H]3C2)o1 [Example E119, (3aR,10aR)—N-(3-chloro-4-fluorophenyl)-7-methyl-2-(5-methyl-1,3,4-oxadiazol-2-yl)-2,3,3a,4,10,10a-hexahydro-1H,7H-dipyrrolo[3,4-b:3′,4′-f][1,4,5]oxathiazocine-8-carboxamide 5,5-dioxide]
- EC50 (Hepatitis B virus): < 1000 nM

Compound: Cc1cc(NC(=O)c2c3c(cn2C)S(=O)(=O)NC2CN(C(=O)C4(C)COC4)CC2CO3)ccc1F (stereo not drawn) [Example E149, Trans-N-(4-fluoro-3-methylphenyl)-7-methyl-2-(3-methyloxetane-3-carbonyl)-2,3,3a,4,10,10a-hexahydro-1H,7H-dipyrrolo[3,4-b:3′,4′-f][1,4,5]oxathiazocine-8-carboxamide 5,5-dioxide]
- EC50: < 1000 nM

Compound: Cc1cc(NC(=O)c2c3c(cn2C)S(=O)(=O)N[C@H]2CN(C(=O)C4COC4)C[C@H]2CO3)ccc1F [Example E108, (3aR,10aR)—N-(4-fluoro-3-methylphenyl)-7-methyl-2-(oxetane-3-carbonyl)-2,3,3a,4,10,10a-hexahydro-1H,7H-dipyrrolo[3,4-b:3′,4′-f][1,4,5]oxathiazocine-8-carboxamide 5,5-dioxide]
- EC50 (Hepatitis B virus): < 1000 nM

Compound: Cc1nnc(C(=O)N2C[C@H]3COc4c(cn(C)c4C(=O)Nc4ccc(F)c(C)c4)S(=O)(=O)N[C@H]3C2)o1 [Example E98, (3aR,10aR)—N-(4-fluoro-3-methylphenyl)-7-methyl-2-(5-methyl-1,3,4-oxadiazole-2-carbonyl)-2,3,3a,4,10,10a-hexahydro-1H,7H-dipyrrolo[3,4-b:3′,4′-f][1,4,5]oxathiazocine-8-carboxamide 5,5-dioxide]
- EC50 (Hepatitis B virus): < 1000 nM

Compound: Cc1cc(NC(=O)c2c3c(cn2C)S(=O)(=O)NC2CN(C(=O)c4cccnc4)CC2CO3)ccc1F (stereo not drawn) [Example E54, cis-N-(4-fluoro-3-methylphenyl)-7-methyl-2-nicotinoyl-2,3,3a,4,10,10a-hexahydro-1H,7H-dipyrrolo[3,4-b:3′,4′-f][1,4,5]oxathiazocine-8-carboxamide 5,5-dioxide]
- inhibition at 0.1 µM (Hepatitis B virus, 0.1 μM): > 50%

Compound: CCOC(=O)N1C[C@H]2COc3c(cn(C)c3C(=O)Nc3ccc(F)c(C)c3)S(=O)(=O)N[C@H]2C1 (single isomer, unassigned) [Example E39]
- inhibition at 0.05 µM (Hepatitis B virus, 0.05 μM): > 50%
- EC50 (Hepatitis B virus): < 1000 nM

Compound: Cc1nc(C(=O)N2C[C@H]3COc4c(cn(C)c4C(=O)Nc4ccc(F)c(C)c4)S(=O)(=O)N[C@H]3C2)co1 [Example E112, (3aR,10aR)—N-(4-fluoro-3-methylphenyl)-7-methyl-2-(2-methyloxazole-4-carbonyl)-2,3,3a,4,10,10a-hexahydro-1H,7H-dipyrrolo[3,4-b:3′,4′-f][1,4,5]oxathiazocine-8-carboxamide 5,5-dioxide]
- EC50 (Hepatitis B virus): < 1000 nM
